Measurements from US20240197729A1, “ALK-5 Inhibitors and Uses Thereof” (Sumitomo Pharma Oncology, Inc., priority 2021, published 2024).

What was measured:
[1] = target: T1, ALK5 (Homo sapiens, UniProt P36897); assay: LanthaScreen Eu Kinase Binding Assay, ALK5; settings: 10-point titration, read-out: Kinase Inhibition: ALK5 IC50 (Lantha)
T1 sequence (P36897 34-503): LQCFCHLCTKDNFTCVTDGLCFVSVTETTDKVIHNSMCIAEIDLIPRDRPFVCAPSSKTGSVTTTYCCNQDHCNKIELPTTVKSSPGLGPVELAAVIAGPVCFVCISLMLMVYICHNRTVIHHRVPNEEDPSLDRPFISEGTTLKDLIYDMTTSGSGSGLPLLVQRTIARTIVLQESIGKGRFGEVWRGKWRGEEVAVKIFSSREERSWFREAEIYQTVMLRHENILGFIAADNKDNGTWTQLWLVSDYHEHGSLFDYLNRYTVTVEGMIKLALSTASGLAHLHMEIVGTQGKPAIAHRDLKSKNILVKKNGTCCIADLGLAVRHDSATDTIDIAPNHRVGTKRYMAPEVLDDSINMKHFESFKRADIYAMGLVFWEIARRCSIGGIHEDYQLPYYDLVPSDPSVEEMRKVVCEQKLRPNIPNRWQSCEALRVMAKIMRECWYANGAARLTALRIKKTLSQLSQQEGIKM
Protocol: Selected compounds of the present disclosure were assayed for inhibitory activity against ALK5 and ALK2. Activity determinations and selectivity were conducted by Thermo Fisher Scientific SelectScreen™ Biochemical Kinase Profiling Service using their LanthaScreen™ Eu Kinase Binding Assay Screening.
Binding of an Alexa Fluor™ conjugate or “tracer” to a kinase is detected by addition of a Eu-labeled anti-tag antibody. Binding of the tracer and antibody to a kinase results in a high degree of FRET, whereas displacement of the tracer with a kinase inhibitor results in a loss of FRET. This assay is carried out by mixing the compound tested with the reagents and reading; no development step is required.
Life Technologies' Kinase Tracers are based on ATP-competitive kinase inhibitors, making them suitable for detection of any compounds that bind to the ATP site. Inhibitors that bind the ATP site include both Type I kinase inhibitors, which bind solely to the ATP site, and Type II inhibitors (e.g., Gleevec®/Imatinib, Sorafenib, BIRB-796), which bind to both the ATP site and a second site often referred to as the allosteric site.
The test compounds were screened in 1% DMSO (final) in the well. For 10-point titrations, 3-fold serial dilutions were conducted from the starting concentration (see Table 2 below).
All Kinase/Antibody Mixtures were diluted to a 2× working concentration in the specified kinase buffer. The 4× AlexaFluor labeled Tracer was prepared in Kinase Buffer.
• Bar-coded, low volume, white, 384-well plate (Greiner Cat. #784207) • 1. 160 nL—100× Test Compound in 100% DMSO • 2. 3.84 μL—Kinase Buffer • 3. 8.0 μL—2× Kinase/Antibody Mixture • 4. 4.0 μL—4× Tracer • 5. 30-second plate shake • 6. 60-minute incubation at room temperature • 7. Read on fluorescence plate reader and analysis of the data
The following controls were made for each individual kinase and were located on the same plate as the kinase:
100% Displacement Control: The minimum Emission Ratio was established by the 100% Displacement Control wells, which contained the highest concentration of the known inhibitor used in that assay.
Known Inhibitor: A known inhibitor control standard curve, 10-point titration, was run for each individual kinase on the same plate as the kinase to ensure the inhibitor was displaced within an expected IC50 range previously determined.
The following equations were used for each set of data points: […]
Data generated were plotted using the graphing software XLfit from IDBS. The dose response curve was curve fit to model number 205.

[2] = tested on: phospho-SMAD2 (S465/S467); assay: Phospho-SMAD2 assay in RDSR cells; assay type: cell-based; settings: Homo sapiens, 0.5 h, 100 ng/ml TGF-β1, 30 minutes
Source text: TGF-β is a pleiotropic cytokine involved in extremely conserved pathways relevant to cell growth, differentiation, and development. TGF-β signaling is triggered when the activated TGF-β homodimer binds to the TGF-β receptor 2 (TGFbR2), which in turn leads to the recruitment and phosphorylation of TGF-β receptor 1 (TGFbR1). Activated TGFbR1 phosphorylates the signal transduction molecules SMAD2 and SMAD3, which then bind to the common mediator SMAD4 and translocate to the nucleus where they alter gene transcription. In this assay, phospho-SMAD2 (S465/S467), a direct phosphorylation substrate of TGFbR1, was used as a readout of TGF-β pathway activity. Vactosertib (a TGFbR1 inhibitor available from MedChem Express HY-19928) was included as a positive control.
The RD SMAD reporter (RDSR) cell line was generated by stably integrating the SMAD reporter plasmid (Promega, pGL4.48[luc2P/SBE/Hygro]) into the human rhabdomyosarcoma cell line RD (ATCC, CCL-136).
RDSR cells were seeded in DMEM (ATCC30-2002)+10% FBS in 96-well plate and allowed to grow overnight at 5% CO2 and 37° C. The next day, cells were pre-treated with Compound 04, Compound 01 or vactosertib at various concentrations, or with vehicle (DMSO), for one hour. Cells were then stimulated with recombinant human TGF-β1 (R&D Systems 7754-BH-005) at a final concentration of 100 ng/ml, in the presence of Compound 04, Compound 01, vactosertib, or DMSO for thirty minutes. A no-TGF-β1 stimulation condition was included for baseline phospho-SMAD2 level measurement.
The phospho-SMAD2 levels were determined using the Bio-Plex Pro™ Phospho-Smad2 (Ser465/Ser467) bead/antibody set (BioRad 171V50019M). Phospho-SMAD2 levels were normalized to ß-tubulin (MILLIPLEX MAP ß-Tubulin Total Magnetic Bead MAPmate™, Millipore 46-713MAG) or GAPDH (MILLIPLEX MAP GAPDH Total Magnetic Bead MAPmate™, Millipore 46-667MAG) levels from each sample. All samples were analyzed in a multiplex fashion with the Bio-Plex Pro Cell Signaling Reagent Kit (BioRad 171304006M). […] Bead suspension was analyzed using the Luminex system (MAGPIX). […]

Compound	IC50 [1]	IC50 [2]
Cc1cccc2c(Nc3ccnc(Nc4ccc(N5CCOCC5)cc4)c3)cnnc12 [Compound 05, N4-(8-methylcinnolin-4-yl)-N2-[4-(morpholin-4-yl)phenyl]pyridine-2,4-diamine]	2 to 5 nM	–
Clc1cccc2c(Nc3ccnc(Nc4cccc(N5CCOCC5)c4)c3)cnnc12 [Compound 04, N4-(8-chlorocinnolin-4-yl)-N2-[3-(morpholin-4-yl)phenyl]pyridine-2,4-diamine]	2 to 5 nM	< 200 nM
Cc1cccc(-c2[nH]c(CNc3ccccc3F)nc2-c2ccc3ncnn3c2)n1 [Vactosertib, vactosertib, reference compound]	–	< 200 nM
Cc1nn(CC(F)(F)F)cc1Nc1cc(Nc2cnnc3c(C)cccc23)ccn1 [Compound 01, N2-[3-methyl-1-(2,2,2-trifluoroethyl)-1H-pyrazol-4-yl]-N4-(8-methylcinnolin-4-yl)pyridine-2,4-diamine]	≤ 2 nM	< 200 nM
